Measurements published in patent publication US9072698B2, “Method for screening anti-cancer compounds inhibiting function of TM4SF5 and anti-cancer composition containing chalcone compounds” (Seoul National University Industry Foundation, priority 2006, dated 2015).
≈ marks a conversion by molar mass, not a printed value.

How the values were obtained:
[1] = test system: HCT15 (colon adenocarcinoma); experiment: In vitro cytotoxicity, sulforhodamine B (SRB) method, HCT15; assay type: cell-based; settings: Homo sapiens; HCT-15, SRB method; read-out: cytotoxicity (ED50) HCT-15
In short: (§1)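 Cells grown in RPMI 1640 with 10% FCS at 37 °C, 5% CO2 were exposed to compounds at 30, 10, 3, 1 and 0.3 μg/ml final, with DMSO below 0.5%. Cytotoxicity was read by the standard NCI sulforhodamine B protein-staining method.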

[2] = test system: PC-3 (prostate adenocarcinoma); experiment: In vitro cytotoxicity, sulforhodamine B (SRB) method, PC-3; assay type: cell-based; settings: Homo sapiens; PC-3, SRB method; read-out: cytotoxicity (ED50) PC-3
In short: as §1

SNU449Tp cells [3] = experiment: Cell growth over time of TM4SF5-expressing cells (FIG. 43, right); assay type: cell-based, human; settings: TSAHC at given concentrations
Protocol: Arrows indicate the overlapping nuclei of cells undergoing cell division. […] In addition, in order to measure the growth rates of the cells, 5×10^4 cells were plated onto 6-well plates and counted every 12 hrs. The results are expressed as a graph. […] This was observed even at a low cell density. That is, among cells at a low density, TM4SF5-expressing cells proliferated through cell division, during which two nuclei overlapped each other.

SNU449Tp cells [4] = experiment: BrdU immunofluorescent staining, S-phase progression (FIG. 44); assay type: cell-based, human; settings: 20 μM, BrdU for 24 hrs
Protocol: (§2) When cells were transfected with given specific genes or infected with various viruses, they were used after being cultured for a given period of time. Cells treated with 10 mM lysophosphatidic acid (LPA) were used 1 hour after being attached to cover glasses. Immunofluorescent staining was carried out by preparing a slide for fluorescent analysis through incubation with a primary antibody against a target protein, washing out unbound antibody molecules, incubation with a fluorescein-conjugated secondary antibody and washing out unbound antibody molecules, and actin filament staininh was carried out with rhodamine-conjugated phalloidin. Antibodies used included antibodies against E-cadherin, β-catenin, FLAG, 4′-6-diamidino-2-phenylindole (DAPI), 5-brorno-2′-deoxy-uridine (BrdU), p27^kip1, ZO1 (zonula occludens-1), and the like. Immunofluorescent stained cover glasses were placed on slides and observed under a fluorescence microscope or a confocal laser scanning microscope.

TM4SF5-expressing cells = experiment: Immunostaining for DNA and the actin cytoskeleton, cell shape (FIG. 49); assay type: cell-based, human
Protocol: as §2

SNU449Tp cells [5] = experiment: Transwell chamber cell migration (FIG. 65); assay type: cell-based, human; settings: 20 μM, 18 hrs
Protocol: Cell migration was examined using Boyden Transwell chamber 24 well plates (Costar, Cambridge, Mass.). SNU449 Cp and SNU449Tp cells were placed in a chamber on a polycarbonate filter (8 μm porosity) at a density of 5×10^4 cells/well, and cultured in serum-free RPMI (Roswell Park Memorial Institute) media in an incubator at 37° C. under 5% CO2 for 24 hrs. Then, cells on the upper surface of the membrane of the insert chamber were completely removed by wiping with a cotton swab. Cells on the lower side of the membrane were fixed with 70% methanol for about 7 min.
SNU449 Cp cells and SNU449Tp cells were plated onto 6-well plates and cultured for 24 hrs. Cells were then treated with 20 μM of TSAHC to culture for 18 hrs. Cells were transferred into insert wells of the Transwell chamber. After 18 hrs, migrated cells were fixed, stained, and observed under an optical microscope. Cells were counted, and the results were expressed as a graph (FIG. 65).

SNU449Tp cells [6] = experiment: Invasion into collagen gel, microcarrier beads (FIG. 66); assay type: cell-based, human; settings: 20 μM, 18 hrs
Protocol: Cell invasiveness was analyzed using Cytodex-3 microcarriers. SNU449 Cp and SNU449Tp cells were grown on microcarrier beads in an attached state, and cultured in a collagen gel matrix, including a serum-containing medium at 37° C.
SNU449 Cp cells and SNU449Tp cells were allowed to attach to microcarrier beads, and cultured in the presence of 20 μM of TSAHC for 18 hrs. Bead-cells were cultured in a collagen gel matrix, including a serum-containing medium, and observed for invasion into the collagen gel at given time points.

MMP-2 and MMP-9 = experiment: Gelatin zymography of culture supernatants (FIG. 68); assay type: cell-based, human; settings: 20 μM, 24 hrs
Protocol: The substrate degradation activity of secreted MMPs was investigated using gelatin zymography. Cell lines, indicated in FIG. 62, were cultured in 60-mm culture dishes. After 18 hrs, the medium was exchanged with serum-free medium, and cells were cultured for a further 24 hrs. Culture supernatants were collected to obtain secreted MMPs, and were then concentrated. Samples were electrophoresed on the running SDS-PAGE gel containing gelatin as a substrate for MMPs under reducing conditions. The gel was washed in 1% Triton X-100 to remove SDS, thus renaturing the enzymes. The gel was then incubated in enzyme reaction buffer (10 mM CaCl2, 0.15 M NaCl, 50 mM Tris-HCl, pH 7.5) at 37° C. for 18 hrs. The gel was stained with 0.5% Coomassie Brilliant Blue R250 for 3 hrs, and destained until clear bands appeared in 10% acetic acid and 30% methanol.
In addition, Cp cells and Tp cells were treated with 20 μM of TSAHC for 24 hrs. The medium was exchanged with serum-free medium, and cells were cultured for a further 18 hrs. Culture supernatants were collected, concentrated, and analyzed using zymography, as described above.

SNU449Tp cells [7] = experiment: Comparison of TSAHC and analogues: cell morphology and multilayer growth by optical microscope (FIG. 69); assay type: cell-based, human; settings: 20 μM, 24 hr treatment
Protocol: TSAHC and its structural analogues were compared for their effects on TM4SF5-mediated events. Dimethyl sulfoxide (DMSO) and chalcone analogues, used in this test, have the following chemical structure.
SNU449 Cp cells and SNU449Tp cells were plated onto 6-well plates and treated with the above compounds at 20 μM for 24 hrs. Cells were monitored for changes in cell morphology using an optical microscope.

Cc1ccc(S(=O)(=O)Nc2ccc(C(=O)/C=C/c3ccc(O)cc3)cc2)cc1 [Compound 1, 4′-(p-toluenesulfonylamino)-4-hydroxychalcone]
IC50 [1]: 35 µg/mL (≈ 89 µM) | IC50 [2]: 37 µg/mL (≈ 94 µM) | growth over time of TM4SF5-expressing cells (SNU449Tp cells [3]): reduced linear growth over time in a manner dependent on TSAHC concentrations | S-phase progression (SNU449Tp cells [4]): inhibited S-phase progression | cell shape (TM4SF5-expressing cells): returned the elongated cell shape to the same polygonal shape as that of TM4SF5-null control cells | TM4SF5-mediated cell migration (SNU449Tp cells [5]): inhibit TM4SF5-mediated cell migration | TM4SF5-mediated cell invasion into collagen gel (SNU449Tp cells [6]): inhibit TM4SF5-mediated cell invasion into collagen gel | TM4SF5-mediated activity of MMPs (MMP-2 and MMP-9): inhibit the TM4SF5-mediated activity of MMPs | TM4SF5-mediated multilayer growth (SNU449Tp cells [7]): effectively stimulate the growth of TM4SF5-expressing cells, not in a multilayer but in a monolayer arrangement | cell morphology (SNU449Tp cells [7]): changed the cell morphology into the same shape as that of SNU449 control cells not expressing TM4SF5
